# Experiments:
# [1] = molecular target: T1, lactase-phlorizin hydrolase (LPH) (Mus musculus, UniProt F8VPT3); assay: competitive ABPP in mouse intestine homogenates, LPH; type: biochemical; conditions: mouse duodenum extracts; 0-100 μM; pH 6.0
# T1 construct: cABPP in mouse intestine homogenates; from tissue; host or cells: duodenum of wild type mice
# sucrase-isomaltase (SI) = molecular target: T2, sucrase-isomaltase (SI) (Mus musculus, UniProt B5THE3); assay: competitive ABPP in mouse intestine homogenates, SI; type: biochemical; conditions: mouse duodenum extracts; 0-100 μM; 30 min 37 °C
# T2 construct: cABPP in mouse intestine homogenates; from tissue; host or cells: duodenum of wild type mice
# Experimental: Inhibition of gastrointestinal α-glucosidases with antidiabetic drugs has been related to undesired effects, including flatulence, diarrhea, and abdominal pain. Cyclosulfamidate 4 inhibits SI and MGAM but does so about a 100-fold less potently than it inhibits rhGAA or GANAB, and we conclude that it has a more beneficial therapeutic window in this regard compared to NB-DNJ 2.
# Figure 2 Competitive ABPP (cABPP) in mouse intestine homogenates. […]
# After preincubation, 25 μL of E+I mixture was added to a 96 wells plate and 100 μL substrate solution in the appropriate buffer was subsequently added. GAA activity was measured using final concentrations of 47 nM enzyme (Myozyme) and 3.0 mM 4-MU-α-D-glucopyranoside, for 30 minutes at 37 ℃. GANAB activity was measured using wt fibroblasts and 2.4 mM 4-MU-α-D-glucopyranoside, for 2 h at 37 ℃. GBA1 activity was measured using final concentrations of 0.7 nM enzyme (Cerezyme) and 3.0 mM 4-methylumbeliferone(4-MU)-β-D-glucopyranoside, for 30 min at 37 ℃. GBA2 residual activity was measured using cellular homogenates of HEK293T over-expressing GBA2 pre-incubated for 30 min with a GBA1 inhibitor (1 µM 37 (ME656), see Figure S1 for chemical structure), and further incubation with 3.0 mM 4-methylumbeliferone(4MU)-β-D-glucopyranoside […]
# [2] = molecular target: T3, bacterial α-glucosidase CjAgd31B (Cellvibrio japonicus, UniProt B3PEE6); assay: thermal shift assay of CjAgd31B with Sypro Orange dye; type: binding; conditions: 2 μM CjAgd31B, 0-1000 μM inhibitor, pH 6.5
# T3 construct: made in house
# T3 sequence (B3PEE6 25-816): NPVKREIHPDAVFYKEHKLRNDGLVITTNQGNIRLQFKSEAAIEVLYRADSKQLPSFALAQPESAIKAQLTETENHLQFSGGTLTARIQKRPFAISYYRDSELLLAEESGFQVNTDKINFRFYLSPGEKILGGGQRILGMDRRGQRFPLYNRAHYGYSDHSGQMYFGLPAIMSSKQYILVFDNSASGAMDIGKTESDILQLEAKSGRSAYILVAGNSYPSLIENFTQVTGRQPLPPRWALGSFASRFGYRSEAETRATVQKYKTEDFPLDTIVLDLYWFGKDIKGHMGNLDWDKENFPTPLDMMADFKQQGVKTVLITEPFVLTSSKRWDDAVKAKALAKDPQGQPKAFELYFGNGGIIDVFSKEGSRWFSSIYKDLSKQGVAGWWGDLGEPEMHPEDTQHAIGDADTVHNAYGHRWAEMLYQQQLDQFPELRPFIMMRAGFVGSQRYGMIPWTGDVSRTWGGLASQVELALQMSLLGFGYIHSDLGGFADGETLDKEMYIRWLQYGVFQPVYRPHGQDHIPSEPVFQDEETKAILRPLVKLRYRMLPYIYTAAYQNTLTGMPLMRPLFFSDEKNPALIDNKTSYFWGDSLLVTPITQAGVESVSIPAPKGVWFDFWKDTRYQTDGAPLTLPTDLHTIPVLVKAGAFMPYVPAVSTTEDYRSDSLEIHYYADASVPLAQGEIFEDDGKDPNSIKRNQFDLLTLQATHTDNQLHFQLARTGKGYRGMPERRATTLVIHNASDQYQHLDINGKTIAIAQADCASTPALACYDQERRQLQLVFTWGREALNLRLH
# T1 sequence (F8VPT3 22-1931): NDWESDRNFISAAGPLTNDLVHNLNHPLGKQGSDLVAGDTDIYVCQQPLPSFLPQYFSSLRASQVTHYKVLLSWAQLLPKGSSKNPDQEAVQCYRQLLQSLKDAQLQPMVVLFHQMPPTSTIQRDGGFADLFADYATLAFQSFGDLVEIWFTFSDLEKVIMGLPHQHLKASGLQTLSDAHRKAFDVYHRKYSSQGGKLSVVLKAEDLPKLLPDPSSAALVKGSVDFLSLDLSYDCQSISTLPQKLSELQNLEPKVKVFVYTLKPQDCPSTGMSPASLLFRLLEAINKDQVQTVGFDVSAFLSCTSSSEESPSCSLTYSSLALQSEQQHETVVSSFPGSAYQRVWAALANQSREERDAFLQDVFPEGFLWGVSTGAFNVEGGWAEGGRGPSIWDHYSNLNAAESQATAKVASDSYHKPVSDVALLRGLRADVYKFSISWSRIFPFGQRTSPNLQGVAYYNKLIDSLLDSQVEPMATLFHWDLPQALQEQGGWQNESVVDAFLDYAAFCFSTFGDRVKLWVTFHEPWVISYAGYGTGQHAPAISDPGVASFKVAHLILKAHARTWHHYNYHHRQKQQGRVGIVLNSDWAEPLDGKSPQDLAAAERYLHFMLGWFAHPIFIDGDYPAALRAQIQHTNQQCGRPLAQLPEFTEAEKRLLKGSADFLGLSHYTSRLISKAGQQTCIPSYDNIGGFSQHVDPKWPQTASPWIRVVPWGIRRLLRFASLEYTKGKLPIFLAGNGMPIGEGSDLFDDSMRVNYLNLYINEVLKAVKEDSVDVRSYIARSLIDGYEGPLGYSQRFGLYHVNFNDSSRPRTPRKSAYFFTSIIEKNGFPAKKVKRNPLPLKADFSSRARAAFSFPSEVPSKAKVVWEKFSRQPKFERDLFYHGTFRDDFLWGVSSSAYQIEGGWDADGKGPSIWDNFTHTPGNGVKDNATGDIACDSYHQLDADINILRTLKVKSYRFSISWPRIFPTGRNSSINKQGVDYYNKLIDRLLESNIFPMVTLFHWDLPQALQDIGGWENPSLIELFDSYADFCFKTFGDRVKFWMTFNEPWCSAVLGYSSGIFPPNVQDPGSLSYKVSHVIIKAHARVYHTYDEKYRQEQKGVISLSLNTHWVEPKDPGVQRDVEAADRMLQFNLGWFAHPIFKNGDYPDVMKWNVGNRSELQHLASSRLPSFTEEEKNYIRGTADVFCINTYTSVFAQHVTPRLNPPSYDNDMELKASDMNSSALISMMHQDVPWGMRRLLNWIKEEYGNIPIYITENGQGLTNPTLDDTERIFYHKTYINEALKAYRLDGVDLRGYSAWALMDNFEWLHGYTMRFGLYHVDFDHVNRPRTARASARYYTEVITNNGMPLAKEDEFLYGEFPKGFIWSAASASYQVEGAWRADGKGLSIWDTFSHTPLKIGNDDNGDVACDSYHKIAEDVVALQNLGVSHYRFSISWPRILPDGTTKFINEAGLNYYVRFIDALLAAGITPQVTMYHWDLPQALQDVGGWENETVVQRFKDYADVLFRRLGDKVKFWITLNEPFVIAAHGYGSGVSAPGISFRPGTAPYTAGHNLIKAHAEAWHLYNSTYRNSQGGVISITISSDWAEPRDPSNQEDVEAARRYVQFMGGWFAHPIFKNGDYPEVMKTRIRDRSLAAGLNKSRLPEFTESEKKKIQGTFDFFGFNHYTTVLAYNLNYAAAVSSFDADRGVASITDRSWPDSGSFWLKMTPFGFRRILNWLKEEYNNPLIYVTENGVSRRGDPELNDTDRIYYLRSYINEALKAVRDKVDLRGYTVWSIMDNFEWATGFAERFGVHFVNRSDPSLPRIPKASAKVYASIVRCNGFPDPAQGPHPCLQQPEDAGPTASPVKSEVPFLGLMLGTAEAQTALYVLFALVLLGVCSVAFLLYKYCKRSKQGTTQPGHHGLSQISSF
# T2 sequence (B5THE3 1-1818): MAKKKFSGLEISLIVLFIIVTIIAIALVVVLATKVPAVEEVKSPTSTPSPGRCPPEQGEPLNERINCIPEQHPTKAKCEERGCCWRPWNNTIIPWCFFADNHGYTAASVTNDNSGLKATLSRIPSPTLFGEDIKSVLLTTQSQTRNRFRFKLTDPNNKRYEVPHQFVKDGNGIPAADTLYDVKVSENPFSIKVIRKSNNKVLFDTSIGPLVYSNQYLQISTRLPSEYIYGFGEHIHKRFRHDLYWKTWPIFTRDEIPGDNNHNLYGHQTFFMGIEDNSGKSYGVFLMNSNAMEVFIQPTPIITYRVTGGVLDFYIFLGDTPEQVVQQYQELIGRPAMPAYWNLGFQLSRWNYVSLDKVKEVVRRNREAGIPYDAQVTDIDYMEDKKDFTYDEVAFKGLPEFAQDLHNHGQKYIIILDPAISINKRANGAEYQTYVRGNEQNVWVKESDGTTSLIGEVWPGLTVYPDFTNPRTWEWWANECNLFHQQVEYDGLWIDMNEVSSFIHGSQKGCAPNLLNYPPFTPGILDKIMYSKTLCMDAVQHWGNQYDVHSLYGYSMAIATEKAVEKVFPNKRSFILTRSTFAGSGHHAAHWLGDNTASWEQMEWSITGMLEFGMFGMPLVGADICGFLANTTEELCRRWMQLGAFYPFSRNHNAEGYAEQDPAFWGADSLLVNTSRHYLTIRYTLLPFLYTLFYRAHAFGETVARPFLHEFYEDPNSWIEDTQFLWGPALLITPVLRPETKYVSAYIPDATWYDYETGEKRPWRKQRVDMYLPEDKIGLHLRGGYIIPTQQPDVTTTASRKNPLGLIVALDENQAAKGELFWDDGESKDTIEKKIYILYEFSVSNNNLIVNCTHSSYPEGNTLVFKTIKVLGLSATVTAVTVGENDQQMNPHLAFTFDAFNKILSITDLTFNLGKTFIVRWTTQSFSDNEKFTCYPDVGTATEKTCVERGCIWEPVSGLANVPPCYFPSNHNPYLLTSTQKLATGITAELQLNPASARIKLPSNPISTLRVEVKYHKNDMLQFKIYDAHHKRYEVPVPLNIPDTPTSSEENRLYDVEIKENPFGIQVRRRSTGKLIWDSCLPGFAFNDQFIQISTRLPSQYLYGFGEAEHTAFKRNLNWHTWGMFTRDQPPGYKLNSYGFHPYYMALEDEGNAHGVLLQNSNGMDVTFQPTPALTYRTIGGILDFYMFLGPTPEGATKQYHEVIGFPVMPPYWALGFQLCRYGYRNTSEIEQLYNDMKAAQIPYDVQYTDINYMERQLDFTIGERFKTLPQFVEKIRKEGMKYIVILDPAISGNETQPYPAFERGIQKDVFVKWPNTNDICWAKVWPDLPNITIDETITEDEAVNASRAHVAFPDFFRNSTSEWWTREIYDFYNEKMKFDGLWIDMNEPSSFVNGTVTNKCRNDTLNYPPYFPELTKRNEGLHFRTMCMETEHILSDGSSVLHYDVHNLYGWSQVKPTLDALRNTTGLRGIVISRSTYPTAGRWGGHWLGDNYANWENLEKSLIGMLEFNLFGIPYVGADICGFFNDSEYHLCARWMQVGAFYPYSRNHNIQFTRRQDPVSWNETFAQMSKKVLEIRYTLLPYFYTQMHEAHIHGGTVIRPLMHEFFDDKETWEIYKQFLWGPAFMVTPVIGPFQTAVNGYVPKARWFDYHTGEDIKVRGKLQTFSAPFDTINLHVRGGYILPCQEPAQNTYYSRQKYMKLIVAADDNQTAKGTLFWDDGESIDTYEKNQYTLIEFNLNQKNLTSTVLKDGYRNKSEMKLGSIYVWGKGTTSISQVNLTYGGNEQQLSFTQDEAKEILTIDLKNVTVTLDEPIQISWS
smiles,measurement,setting,value
"O=S1(=O)N[C@@H]2[C@H](O)[C@@H](O)[C@H](O)[C@@H](CO)[C@@H]2O1 [compound 4, 1,6-epi-cyclophellitol cyclosulfamidate]","inhibition of LPH activities by cABPP, in words",[1],inhibit neither β-glucosidase nor β-galactosidase activities
same,"inhibition of SI by cABPP, in words",sucrase-isomaltase (SI),inhibit
same,ΔTmmax,[2],5.2 °C
same,EC50,[2]; read-out: EC50 of thermal stabilization,134 µM

# Reference: paper PMC9389588, “1,6-epi-Cyclophellitol Cyclosulfamidate Is a Bona Fide Lysosomal α-Glucosidase Stabilizer for the Treatment of Pompe Disease” (Journal of the American Chemical Society, 2022)
